Six substances from patent US20040171566A1, “Antisense modulation of p38 mitogen activated protein kinase expression” (priority 1999, published 2004) can be followed below.

In the oligonucleotide strings, read from the 5' end, every base follows the letter of its sugar. An asterisk marks phosphorothioate; unmarked linkages are phosphodiester. Other units and linkages are bracketed, terminal groups are in braces. A string of capitals states the bases alone. e = 2'-O-(2-methoxyethyl) (MOE); [5mC] = 5-methylcytosine; d = 2'-deoxy (DNA)

One data set relates to IL-6 secretion. As to the kind of experiment: IL-6 secretion by IL-1 stimulated bEND.3 cells, ELISA. The format is cell-based. Particulars: 48 hours after oligonucleotide. The protocol: p38 MAPK antisense oligonucleotides were tested for their ability to reduce IL-6 secretion. bEND.3 cells were cultured and treated as described in Example 4 except that 48 hours after oligonucleotide treatment, cells were stimulated for 6 hours with 1 ng/mL recombinant mouse IL-1 (R&D Systems, Minneapolis, Minn.). IL-6 was measured in the medium using an IL-6 ELISA kit (Endogen Inc., Woburn, Mass.).

For data set [1], the system named is mouse p38α mRNA. Briefly: Mouse p38α mRNA levels in bEND.3 cells, quantitative real-time PCR. The format is cell-based. Particulars: mouse bEND.3 cells, at 50 nM. Summed up: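 Mouse bEND.3 cells, antisense oligonucleotide-treated; p38α mRNA measured by one-step real-time RT-PCR (RT 30 min at 48 °C, then 40 cycles) with a FAM/TAMRA probe. Levels normalized to GAPDH or RiboGreen total RNA, and percent inhibition derived from standard curves of untreated-control mRNA.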

The subject of data set [2] is mouse p38α mRNA. Briefly: Inhibition of mouse p38α mRNA expression in bEND.3 cells, Northern blot. The class given is cell-based. The protocol: (§1) bEND.3, a mouse endothelial cell line (gift of Dr. Werner Risau; see Montesano et al., Cell, 1990, 62, 435, and Stepkowski et al., J. Immunol., 1994, 153, 5336) were grown in high-glucose DMEM (Life Technologies, Gaithersburg, Md.) medium containing 10% fetal bovine serum (FBS) and 1% Penicillin/Streptomycinin. Cells were plated at approximately 2×10^5 cells per 100 mm dish. Within 48 hours of plating, the cells were washed with phosphate-buffered saline (Life Technologies). Then, Opti-MEM7 medium containing 3 μg/mL LIPOFECTIN^7 and an appropriate amount of oligonucleotide were added to the cells. As a control, cells were treated with LIPOFECTIN^7 without oligonucleotide under the same conditions and for the same times as the oligonucleotide-treated samples.
(§2) After 4 hours at 37° C., the medium was replaced with high glucose DMEM medium containing 10% FBS and 1% Penicillin/Streptomycinin. The cells were typically allowed to recover overnight (about 18 to 24 hours) before RNA and/or protein assays were performed as described in Example 2. The p38α, p38β and G3PDH probes used were identical to those described in Example 2.
(§3) Rat p38α antisense oligonucleotides were screened in bEND.3 cells for inhibition of p38α and p38β mRNA expression. The concentration of oligonucleotide used was 100 nM. Oligonucleotides 21844 (SEQ ID NO. 47), 21845 (SEQ ID NO. 48), 21872 (SEQ ID NO. 51), 21873 (SEQ ID NO. 52), 21875 (SEQ ID NO. 54), and 21876 (SEQ ID NO.
(§4) Mouse p38β antisense sequences were screened in bEND.3 cells as described in Example 4.

Data set [3] relates to rat p38α mRNA. As to the kind of experiment: Inhibition of rat p38α mRNA expression in A-10 cells, Northern blot. The format is cell-based. Particulars: Rat A-10 cells, 200 nM oligonucleotide, 24 hours. How it is done:
Rat p38α antisense oligonucleotides were screened in Rat A-10 cells. A-10 cells (American Type Culture Collection, Manassas, Va.) were grown in high-glucose DMEM (Life Technologies, Gaithersburg, Md.) medium containing 10% fetal calf serum (FCS). Cells were treated with oligonucleotide as described in Example 2. Oligonucleotide concentration was 200 nM. mRNA was isolated 24 hours after time zero and quantitated by Northern blot as described in Example 2.

The test system of a further data set is mouse p38β mRNA. As to the kind of experiment: Inhibition of mouse p38β mRNA expression in bEND.3 cells, Northern blot. The format is cell-based. The protocol: as §1, §2, §3, §4
The test system of data set [4] is rat p38α mRNA. Briefly: Inhibition of rat p38α mRNA expression in rat cardiac myocytes, Northern blot. The format is cell-based. As to conditions: 1 μM oligonucleotide, 24 hrs. How it is done: Cells were grown as described in Zechner et al. and transfected with oligonucleotide as described in Example 2. Oligonucleotide concentration was 1 μM. mRNA was isolated 24 hrs after time zero and quantitated using Northern blotting as described in Example 2. An antisense oligonucleotide targeted to JNK-2 was used as a non-specific target control.

Data set [5] deals with human p38α mRNA. As to the kind of experiment: Effect of human p38β oligonucleotides on human p38α mRNA in HUVEC cells. The class given is cell-based. The protocol: HUVEC cells were allowed to reach 75% confluency prior to use. The cells were washed twice with warm (37° C.) OPTI-MEM™ (Life Technologies). The cells were incubated in the presence of the appropriate culture medium, without the growth factors added, and the oligonucleotide formulated in LIPOFECTIN7 (Life Technologies), a 1:1 (w/w) liposome formulation of the cationic lipid N-[1-(2,3-dioleyloxy)propyl]-n,n,n-trimethylammonium chloride (DOTMA), and dioleoyl phosphotidylethanolamine (DOPE) in membrane filtered water. HUVEC cells were treated with 100 nM oligonucleotide in 10 μg/ml LIPOFECTIN7. Treatment was for four hours.
Total mRNA was isolated using the RNEASY7 Mini Kit (Qiagen, Valencia, Calif.; similar kits from other manufacturers may also be used), separated on a 1% agarose gel, transferred to HYBOND™-N+ membrane (Amersham Pharmacia Biotech, Piscataway, N.J.), a positively charged nylon membrane, and probed. p38 MAPK probes were made using the Prime-A-Gene7 kit (Promega Corporation, Madison, Wis.), a random primer labeling kit, using mouse p38α or p38β cDNA as a template. […] The G3PDH probe was labeled with REDIVUE™ ^32P-dCTP (Amersham Pharmacia Biotech, Piscataway, N.J.) and Strip-EZ labelling kit (Ambion, Austin, Tex.). mRNA was quantitated by a PhosphoImager (Molecular Dynamics, Sunnyvale, Calif.). […]

In data set [6] the test system is human p38β mRNA. Briefly: Inhibition of human p38β mRNA expression in HUVEC cells, Northern blot. The format is cell-based.
For data set [7], the system named is human p38α mRNA. As to the kind of experiment: Human p38α mRNA expression in T-24 cells. Particulars: initial screen of human p38β oligonucleotides.
The test system of data set [8] is human p38β mRNA. Briefly: Human p38β mRNA expression in T-24 cells.
The mark [9] stands for this setting: DOSE 100, 1 ng/mL mouse IL-1 for 6 hours.
The mark [10] stands for this setting: 100 nM oligonucleotide in 10 μg/ml LIPOFECTIN, four hours, Northern blot.

For “AoGoGoToGsCsTsCsAsGsGsAsCsTsCsCoAoToToT (antisense eAeGeGeTeG*d[5mC]*dT*d[5mC]*dA*dG*dG*dA*d[5mC]*dT*d[5mC]*e[5mC]eAeTeTeT) [ISIS 21873]”, the “% IL-6 INHIBITION” value in the data set on IL-6 secretion (setting [9]) is recorded as 49%. In addition, the “reduction of p38α mRNA” value in the data set on mouse p38α mRNA [1] is greater than 70%. For the same substance, the “% p38α mRNA INHIBITION” value in the data set on mouse p38α mRNA [2] (dose 25 nM) amounted to 54%; in the data set on mouse p38α mRNA [2] (dose 100 nM (dose response)) it was 92%. The “% p38α mRNA EXPRESSION” value in the data set on rat p38α mRNA [3] came to 19%. Besides, the “% p38β mRNA Inhibition” value is given as 53% with mouse p38β mRNA (dose 1 nM), 31% in the data set with mouse p38β mRNA (dose 5 nM), 28% in the data set on mouse p38β mRNA (dose 25 nM) and 25% in the data set with mouse p38β mRNA (dose 100 nM (dose response)).

For the substance “GoGoCoCoAsGsAsGsAsCsTsGsAsAsTsGoToAoGoT (antisense eGeGe[5mC]e[5mC]eA*dG*dA*dG*dA*d[5mC]*dT*dG*dA*dA*dT*eGeTeAeGeT) [ISIS 21846]”, in the data set with rat p38α mRNA [4], the “% p38α mRNA EXPRESSION” value is on record as 41% and the “% p38α mRNA INHIBITION” value was 59%. Further, the “% p38α mRNA EXPRESSION” value with rat p38α mRNA [3] was found to be 8%.

With “TGCGGCACCTCCCACACGGT (chimeric, phosphorothioate, further chemistry not given here) [ISIS 17893]”, in the data set with human p38α mRNA [5], the “IC50 for p38α compared to p38β” value is given as “approximately 4 fold”. Further, in the data set with human p38α mRNA [5], the “effect on p38α mRNA expression” value is “showed an effect on p38α mRNA expression”. Further, the “% mRNA EXPRESSION” value in the data set with human p38β mRNA [6] (setting [10]) stood at 4%; in the data set on human p38β mRNA [6] (dose 10 nM), 37%; in the data set with human p38β mRNA [6] (dose 25 nM) it was 18%; in the data set with human p38β mRNA [6] (dose 50 nM), 16%; with human p38β mRNA [6] (dose 100 nM) it was 19%. For the same substance, the “% mRNA Inhibition” value in the data set with human p38β mRNA [6] (setting [10]) came to 96%; with human p38β mRNA [6] (dose 10 nM), 63%; in the data set on human p38β mRNA [6] (dose 25 nM), 82%; in the data set with human p38β mRNA [6] (dose 50 nM), 84%; in the data set with human p38β mRNA [6] (dose 100 nM), 81%. Besides, the “% p38α mRNA EXPRESSION” value in the data set on human p38α mRNA [7] came to 61%. The “% p38β mRNA Expression” value is recorded as 28% in the data set on human p38β mRNA [8] (dose 50 nM, relative to control oligonucleotide = 100%); 27% in the data set on human p38β mRNA [8] (dose 100 nM, relative to control oligonucleotide = 100%); 16% in the data set on human p38β mRNA [8] (dose 200 nM, relative to control oligonucleotide = 100%); 31% in the data set on human p38β mRNA [8] (initial screen of human p38β oligonucleotides).

Regarding “CoAoToCoAsTsCsAsGsGsGsTsCsGsTsGoGoToAoC (antisense e[5mC]eAeTe[5mC]eA*dT*d[5mC]*dA*dG*dG*dG*dT*d[5mC]*dG*dT*eGeGeTeAe[5mC]) [ISIS 21871]”, the “% IL-6 INHIBITION” value with IL-6 secretion (DOSE 200, 1 ng/mL mouse IL-1 for 6 hours) is 23%. The “% p38α mRNA INHIBITION” value was found to be 1% in the data set on mouse p38α mRNA [2] (dose 1 nM), 23% with mouse p38α mRNA [2] (dose 5 nM), 34% with mouse p38α mRNA [2] (dose 25 nM) and 89% in the data set on mouse p38α mRNA [2] (dose 100 nM (dose response)). Further, in the data set on rat p38α mRNA [3], the “% p38α mRNA EXPRESSION” value stood at 12%. The “% p38β mRNA Inhibition” value turned out to be 4% with mouse p38β mRNA (dose 5 nM), 24% in the data set on mouse p38β mRNA (dose 25 nM) and 56% in the data set with mouse p38β mRNA (dose 100 nM (dose response)).

As for “ToToAoCoAsGsCsCsAsCsCsTsTsCsTsGoGoCoGoC (antisense eTeTeAe[5mC]eA*dG*d[5mC]*d[5mC]*dA*d[5mC]*d[5mC]*dT*dT*d[5mC]*dT*eGeGe[5mC]eGe[5mC]) [ISIS 100804]”, in the data set with IL-6 secretion (setting [9]), the “% IL-6 INHIBITION” value is listed as 57%. Besides, the “% p38α mRNA INHIBITION” value in the data set with mouse p38α mRNA [2] (mouse p38β antisense oligonucleotides, screened as in Example 4) is given as 18%.

Consider “GoAoGoCoAsGsGsCsAsGsAsCsTsGsCsCoAoAoGoG (antisense eGeAeGe[5mC]eA*dG*dG*d[5mC]*dA*dG*dA*d[5mC]*dT*dG*d[5mC]*e[5mC]eAeAeGeG) [ISIS 21875]”, for which the “% p38α mRNA INHIBITION” value in the data set with mouse p38α mRNA [2] (dose 25 nM) was found to be 33%; in the data set on mouse p38α mRNA [2] (dose 100 nM (dose response)), 72%. In addition, the “% p38α mRNA EXPRESSION” value with rat p38α mRNA [3] is listed as 26%. Also, the “% p38β mRNA Inhibition” value in the data set with mouse p38β mRNA (100 nM rat p38α antisense oligonucleotide) is on record as “minimal effects”; in the data set with mouse p38β mRNA (dose 1 nM), 11%; in the data set with mouse p38β mRNA (dose 5 nM), 16%; with mouse p38β mRNA (dose 25 nM) it was 2%; in the data set on mouse p38β mRNA (dose 100 nM (dose response)), 4%.
